According to the supplement of paper PMC11061612:

Tests used:
Assay in all cases: Bliss excess, mean over the matrix (fraction); higher = more synergy
[1] = test system: BT-474 (Breast Carcinoma)
Method in brief: (§1)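 Cell lines grown in DMEM/F12 or RPMI with 10% FBS were plated in 1536-well plates and held 24 hours at 37°C, 5% CO2 before 72 hours of exposure to two-drug dose matrices, with DMSO typically at 0.2%. CellTiter-Glo 2.0 luminescence gave viability, which was converted to inhibition. Vehicle wells were set to 0 and blank wells to 1. Combination Emax is the second-highest inhibition in the matrix, and Bliss excess is the observed combination effect minus the expected EA + EB − EA·EB, where EA and EB are the single-agent effects.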

[2] = test system: DK-MG (Glioblastoma)
Method in brief: as §1

[3] = test system: Daudi (Burkitt's Lymphoma)
Method in brief: as §1

[4] = test system: NCI-H1048 (Small Cell Lung Carcinoma)
Method in brief: as §1

[5] = test system: NCI-H1944 (Lung Adenocarcinoma)
Method in brief: as §1

[6] = test system: NCI-H1975 (Lung Adenocarcinoma)
Method in brief: as §1

[7] = test system: NCI-H2170 (Squamous Cell Lung Carcinoma)
Method in brief: as §1

[8] = test system: OCI-M1 (Acute Myeloid Leukemia)
Method in brief: as §1

[9] = test system: TK (B-Cell Non-Hodgkin's Lymphoma)
Method in brief: as §1

[10] = test system: TOV-21G (Ovarian Carcinoma)
Method in brief: as §1

[11] = test system: CAL-85-1 (Breast Carcinoma)
Method in brief: as §1

[12] = test system: COR-L105 (Lung Adenocarcinoma)
Method in brief: as §1

[13] = test system: GCIY (Gastric Carcinoma)
Method in brief: as §1

[14] = test system: KNS-62 (Squamous Cell Lung Carcinoma)
Method in brief: as §1

[15] = test system: MDA-MB-175-VII (Breast Carcinoma)
Method in brief: as §1

[16] = test system: MG-63 (Osteosarcoma)
Method in brief: as §1

[17] = test system: NCI-H1435 (Non-Small Cell Lung Carcinoma)
Method in brief: as §1

[18] = test system: SBC-3 (Small Cell Lung Carcinoma)
Method in brief: as §1

[19] = test system: SK-MEL-24 (Melanoma)
Method in brief: as §1

Row | Compound | Bliss excess [1] | Bliss excess [2] | Bliss excess [3] | Bliss excess [4] | Bliss excess [5] | Bliss excess [6] | Bliss excess [7] | Bliss excess [8] | Bliss excess [9] | Bliss excess [10] | Bliss excess [11] | Bliss excess [12] | Bliss excess [13] | Bliss excess [14] | Bliss excess [15] | Bliss excess [16] | Bliss excess [17] | Bliss excess [18] | Bliss excess [19]
1 | CC(=O)c1c(C)c2cnc(Nc3ccc(N4CCNCC4)cn3)nc2n(C2CCCC2)c1=O [Palbociclib] + CN(CC[C@H](CSC1=CC=CC=C1)NC2=C(C=C(C=C2)S(=O)(=O)NC(=O)C3=CC=C(C=C3)N4CCC(CC4)[C@H](C5=CC=CC=C5C6=CC=C(C=C6)Cl)O)S(=O)(=O)C(F)(F)F)CCO [AZD4320] (first compound max 10 µM, 7x7, partner max 1 µM) | -0.108 | -0.0456 | 0.0218 | 0.019 | -0.0915 | -0.0291 | -0.0809 | -0.014 | 0.0858 | -0.0853 |  |  |  |  |  |  |  |  | 
2 | CN(C)CCCOc1ccc(-c2ccc3ncc4c(c3c2)n(C2CCOCC2)c(=O)n4C)cn1 [AZD0156] + C[C@@H]1COCCN1C2=NC(=NC(=C2)C3(CC3)[S@](=N)(=O)C)C4=C5C=CNC5=NC=C4 [AZD6738] (first compound max 1 µM, 7x7, partner max 10 µM) | -0.0416 | 0.0346 | -0.0031 | -0.0129 | 0.0062 | 0.0026 | 0.0947 | 0.0352 | 0.0289 | 0.025 | 0.0042 | -0.0779 | 0.0607 | -0.0343 | -0.0122 | -0.0056 | -0.0134 | 0.0039 | -0.0159
3 | C[C@@H]1COCCN1c1cc(C2([S@](C)(=N)=O)CC2)nc(-c2ccnc3[nH]ccc23)n1 [AZD6738] + O=C(c1cc(Cc2n[nH]c(=O)c3ccccc23)ccc1F)N1CCN(C(=O)C2CC2)CC1 [Olaparib] (first compound max 10 µM, 7x7, partner max 10 µM) | -0.0135 | 0.0079 | -0.0239 | 0.0581 | 0.0194 | -0.0088 | -0.0373 | -0.017 | -0.0552 | 0.0035 | -0.0003 | -0.0435 | -0.0433 | 0.0026 | 0.0522 | 0.047 | 0.0203 | -0.0328 | -0.0105
4 | CC1(C)CCC(CN2CCN(c3ccc(C(=O)NS(=O)(=O)c4ccc(NCC5CCOCC5)c([N+](=O)[O-])c4)c(Oc4cnc5[nH]ccc5c4)c3)CC2)=C(c2ccc(Cl)cc2)C1 [Venetoclax] + COc1cc(Nc2ncc3c(n2)-c2ccc(Cl)cc2C(c2c(F)cccc2OC)=NC3)ccc1C(=O)O [Alisertib] (first compound max 1 µM, 7x7, partner max 10 µM) | -0.0136 | -0.0012 | -0.0718 | 0.0987 | -0.0192 | -0.0453 | -0.0702 | 0.0977 | 0.223 | -0.006 | -0.007 | -0.0741 | 0.0271 | -0.0512 | -0.0221 | -0.0116 | -0.0522 | 0.0101 | -0.0132
5 | Cc1c2c(nn1C)CSCc1cc(n(C)n1)CSc1cc(c3ccccc3c1)OCCCc1c(C(=O)O)n(C)c3c-2c(Cl)ccc13 [AZD5991] + C1CN(CCC1(C(=O)N[C@@H](CCO)C2=CC=C(C=C2)Cl)N)C3=NC=NC4=C3C=CN4 [Capivasertib] (first compound max 1 µM, 7x7, partner max 3 µM) | 0.0359 | 0.047 | 0.0353 | 0.0267 | 0.0254 | 0.0322 | -0.0324 | -0.0105 | -0.0039 | -0.0249 | -0.0289 | -0.0019 | 0.0118 | 0.0047 | 0.0261 | -0.0384 | 0.0331 | -0.0316 | -0.0196
6 | CN(C)CCCOc1ccc(-c2ccc3ncc4c(c3c2)n(C2CCOCC2)c(=O)n4C)cn1 [AZD0156] + CCN(CCO)CCCOc1ccc2c(Nc3cc(CC(=O)Nc4cccc(F)c4)[nH]n3)ncnc2c1 [AZD2811] (first compound max 1 µM, 7x7, partner max 1 µM) | -0.0423 | 0.0081 | 0.107 | -0.0053 | -0.0077 | 0.0049 | -0.0136 | 0.042 | 0.0495 | 0.0147 | -0.0409 | -0.0457 | -0.0301 | -0.0213 | -0.018 | -0.0079 | -0.0219 | -0.0422 | -0.0401
7 | CC1(C)CCC(CN2CCN(c3ccc(C(=O)NS(=O)(=O)c4ccc(NCC5CCOCC5)c([N+](=O)[O-])c4)c(Oc4cnc5[nH]ccc5c4)c3)CC2)=C(c2ccc(Cl)cc2)C1 [Venetoclax] + C1CN(CCC1(C(=O)N[C@@H](CCO)C2=CC=C(C=C2)Cl)N)C3=NC=NC4=C3C=CN4 [Capivasertib] (first compound max 1 µM, 7x7, partner max 3 µM) | -0.0376 | -0.0193 | -0.0103 | 0.0124 | -0.0343 | -0.0362 | -0.0434 | -0.0441 | -0.0111 | -0.0533 | -0.031 | -0.0664 | -0.0778 | -0.0474 | -0.0175 | -0.0862 | 0.0014 | -0.0457 | -0.0695
8 | Cc1c2c(nn1C)CSCc1cc(n(C)n1)CSc1cc(c3ccccc3c1)OCCCc1c(C(=O)O)n(C)c3c-2c(Cl)ccc13 [AZD5991] + C=CCn1c(=O)c2cnc(Nc3ccc(N4CCN(C)CC4)cc3)nc2n1-c1cccc(C(C)(C)O)n1 [AZD1775] (first compound max 1 µM, partner max 1 µM) | -0.0298 | 0.0168 | -0.0124 | 0.0002 | -0.0472 | -0.0523 | -0.0274 | 0.0066 | -0.0721 | -0.0865 | -0.0194 | -0.0025 | 0.0035 | 0.0251 | -0.0223 | -0.0317 | 0.0568 | -0.0043 | 0.0416
9 | CC(=O)Nc1cccc(-n2c(=O)n(C3CC3)c(=O)c3c(Nc4ccc(I)cc4F)n(C)c(=O)c(C)c32)c1 [Trametinib] + Cc1nc(-c2cn3c(n2)-c2ccc(-c4cnn(C(C)(C)C(N)=O)c4)cc2OCC3)n(C(C)C)n1 [Taselisib] (first compound max 1 µM, 7x7, partner max 10 µM) | 0.0002 | 0.102 | 0.0217 | 0.245 | 0.175 | 0.177 | 0.029 | 0.0652 | -0.0052 | -0.051 | 0.213 | 0.0409 | 0.0252 | 0.056 | 0.232 | 0.0237 | 0.107 | 0.0858 | 0.012
10 | Cc1c2c(nn1C)CSCc1cc(n(C)n1)CSc1cc(c3ccccc3c1)OCCCc1c(C(=O)O)n(C)c3c-2c(Cl)ccc13 [AZD5991] + CN(C)CCCOc1ccc(-c2ccc3ncc4c(c3c2)n(C2CCOCC2)c(=O)n4C)cn1 [AZD0156] (first compound max 1 µM, 7x7, partner max 1 µM) | 0.0064 | -0.0518 | 0.0362 | 0.0136 | 0.0049 | -0.0241 | -0.0237 | -0.0097 | 0.0046 | -0.0213 | -0.0542 | -0.0139 |  | -0.0201 | 0.0076 |  | 0.0719 | -0.0128 | -0.0328
11 | CN(CCO)CC[C@H](CSc1ccccc1)Nc1ccc(S(=O)(=O)NC(=O)c2ccc(N3CCC([C@@H](O)c4ccccc4-c4ccc(Cl)cc4)CC3)cc2)cc1S(=O)(=O)C(F)(F)F [AZD4320] + Cn1cnc2c(F)c(Nc3ccc(Br)cc3Cl)c(C(=O)NOCCO)cc21 [Selumetinib] (first compound max 1 µM, 7x7, partner max 3 µM) | -0.002 | 0.0286 | 0.0037 | 0.0198 | 0.0427 | 0.0125 | -0.0497 | 0.0503 | -0.032 | 0.0593 | -0.0492 | 0.0181 | 0.0199 | 0.03 | 0.0188 | -0.0179 | 0.0507 | -0.0148 | -0.0168
12 | CN(CCO)CC[C@H](CSc1ccccc1)Nc1ccc(S(=O)(=O)NC(=O)c2ccc(N3CCC([C@@H](O)c4ccccc4-c4ccc(Cl)cc4)CC3)cc2)cc1S(=O)(=O)C(F)(F)F [AZD4320] + C1CN(CCC1(C(=O)N[C@@H](CCO)C2=CC=C(C=C2)Cl)N)C3=NC=NC4=C3C=CN4 [Capivasertib] (first compound max 1 µM, 7x7, partner max 3 µM) | -0.0487 | -0.0847 | -0.0512 | 0.0513 | -0.0508 | -0.0459 | -0.023 | -0.0161 | 0.0106 | -0.0429 | -0.0219 | -0.0378 | 0.0298 | -0.0637 | 0.0425 | -0.0785 | 0.0003 | -0.0793 | -0.0428
13 | COc1nnc2ccc(N3CCC(c4ccc(OCCN5CCN(C)C(=O)[C@H]5C)cc4)CC3)nn12 [AZD5153] + CN(CC[C@H](CSC1=CC=CC=C1)NC2=C(C=C(C=C2)S(=O)(=O)NC(=O)C3=CC=C(C=C3)N4CCC(CC4)[C@H](C5=CC=CC=C5C6=CC=C(C=C6)Cl)O)S(=O)(=O)C(F)(F)F)CCO [AZD4320] (first compound max 1 µM, 7x7, partner max 1 µM) | 0.0941 | 0.0382 | 0.0159 | 0.0831 | 0.0269 | -0.012 | 0.0175 | -0.0095 | -0.0154 | 0.0211 |  |  |  |  |  |  |  |  | 
14 | Cc1c2c(nn1C)CSCc1cc(n(C)n1)CSc1cc(c3ccccc3c1)OCCCc1c(C(=O)O)n(C)c3c-2c(Cl)ccc13 [AZD5991] + C[C@@H]1COCCN1C2=NC(=NC(=C2)C3(CC3)[S@](=N)(=O)C)C4=C5C=CNC5=NC=C4 [AZD6738] (first compound max 1 µM, 7x7, partner max 10 µM) | 0.0367 | 0.046 | 0.0874 | 0.0445 |  | 0.0671 | 0.0272 | 0.0061 | 0.0536 | 0.0322 | -0.0233 | -0.0407 | -0.0184 | 0.0235 | 0.0187 | 0.0127 | 0.0488 | 0.0405 | 0.0025
